Measurements reported in PubChem BioAssay AID2060886 (Molecular Pharmacology Branch, DTP, NCI, 2025).

Tested on: 653999-131-R-J2-PDC complex spheroids, growth inhibition
Assay: Anticancer human tumor 653999-131-R-J2-PDC patient-derived lung adenocarcinoma cell line growth inhibition [RAS]
Conditions: for viability, T/C: stronger effect = lower value
How it was run: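 Tumour cells grown as complex spheroids with HUVEC endothelial cells and mesenchymal stem cells, treated with RAS pathway inhibitor combinations. Each agent spans half-log steps from near clinical Cmax, or 10 microM where Cmax is unknown.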

[1] = curve of first compound, second compound 0.0316 µM
[2] = curve of first compound, second compound 0.1 µM
[3] = curve of first compound, second compound 0.316 µM
[4] = curve of first compound, second compound 1 µM
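Further: spheroids exposed to the agents for seven days before the readout.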

## C[C@@H](NC(=O)c1ncnc(N)c1Cl)c1ncc(C(=O)Nc2cc(C(F)(F)F)c(Cl)cn2)s1 + C#Cc1c(F)ccc2cc(O)cc(-c3ncc4c(N5CC6CCC(C5)N6)nc(OCC56CCCN5CC(F)C6)nc4c3F)c12
[1]
  IC50: > 10000 nM
[2]
  IC50: > 10000 nM
[3]
  IC50: > 10000 nM
[4]
  IC50: > 10000 nM
Curve of first compound, second compound 3.16 µM
  IC50: < 31.6 nM
Curve of first compound, second compound 10 µM
  IC50: < 31.6 nM
Second compound 0.0316 µM, first compound 0.0316 µM
  viability, T/C: 102%
Second compound 0.0316 µM, first compound 0.1 µM
  viability, T/C: 109%
Second compound 0.0316 µM, first compound 0.316 µM
  viability, T/C: 102%
Second compound 0.0316 µM, first compound 1 µM
  viability, T/C: 100%
Second compound 0.0316 µM, first compound 3.16 µM
  viability, T/C: 100%
Second compound 0.0316 µM, first compound 10 µM
  viability, T/C: 73.5%
Second compound 0.1 µM, first compound 0.0316 µM
  viability, T/C: 91%
Second compound 0.1 µM, first compound 0.1 µM
  viability, T/C: 91.6%
Second compound 0.1 µM, first compound 0.316 µM
  viability, T/C: 90%
Second compound 0.1 µM, first compound 1 µM
  viability, T/C: 78.3%
Second compound 0.1 µM, first compound 3.16 µM
  viability, T/C: 71%
Second compound 0.1 µM, first compound 10 µM
  viability, T/C: 77.2%
Second compound 0.316 µM, first compound 0.0316 µM
  viability, T/C: 77.2%
Second compound 0.316 µM, first compound 0.1 µM
  viability, T/C: 75%
Second compound 0.316 µM, first compound 0.316 µM
  viability, T/C: 87.8%
Second compound 0.316 µM, first compound 1 µM
  viability, T/C: 75%
Second compound 0.316 µM, first compound 3.16 µM
  viability, T/C: 88.3%
Second compound 0.316 µM, first compound 10 µM
  viability, T/C: 69.1%
Second compound 1 µM, first compound 0.0316 µM
  viability, T/C: 44.5%
Second compound 1 µM, first compound 0.1 µM
  viability, T/C: 68.3%
Second compound 1 µM, first compound 0.316 µM
  viability, T/C: 72.5%
Second compound 1 µM, first compound 1 µM
  viability, T/C: 44.6%
Second compound 1 µM, first compound 3.16 µM
  viability, T/C: 60.1%
Second compound 1 µM, first compound 10 µM
  viability, T/C: 54.7%
Second compound 3.16 µM, first compound 0.0316 µM
  viability, T/C: 40.3%
Second compound 3.16 µM, first compound 0.1 µM
  viability, T/C: 39.7%
Second compound 3.16 µM, first compound 0.316 µM
  viability, T/C: 37%
Second compound 3.16 µM, first compound 1 µM
  viability, T/C: 44.9%
Second compound 3.16 µM, first compound 3.16 µM
  viability, T/C: 51.5%
Second compound 3.16 µM, first compound 10 µM
  viability, T/C: 41.8%
Second compound 10 µM, first compound 0.0316 µM
  viability, T/C: 22%
Second compound 10 µM, first compound 0.1 µM
  viability, T/C: 21.2%
Second compound 10 µM, first compound 0.316 µM
  viability, T/C: 49.3%
Second compound 10 µM, first compound 1 µM
  viability, T/C: 45.9%
Second compound 10 µM, first compound 3.16 µM
  viability, T/C: 30.5%
Second compound 10 µM, first compound 10 µM
  viability, T/C: 22%

## CC1(C)CCC(Nc2ncc(C(F)(F)F)c(-c3c[nH]c4c(P(C)(C)=O)c(C#N)ccc34)n2)CN1 (stereo not given) + C=CC(=O)N1CCN(c2nc(OCC3CCCN3C)nc3c(F)c(-c4nc(N)cc(C)c4C(F)(F)F)c(Cl)cc23)C(C)C1
Curve of first compound, second compound 0.00316 µM
  IC50: > 300 nM
Curve of first compound, second compound 0.01 µM
  IC50: > 300 nM
[1]
  IC50: > 300 nM
[2]
  IC50: > 300 nM
[3]
  IC50: > 300 nM
[4]
  IC50: > 300 nM
Second compound 0.00316 µM, first compound 0.000949 µM
  viability, T/C: 84%
Second compound 0.00316 µM, first compound 0.003 µM
  viability, T/C: 70.5%
Second compound 0.00316 µM, first compound 0.00949 µM
  viability, T/C: 73.5%
Second compound 0.00316 µM, first compound 0.03 µM
  viability, T/C: 60.1%
Second compound 0.00316 µM, first compound 0.0949 µM
  viability, T/C: 70%
Second compound 0.00316 µM, first compound 0.3 µM
  viability, T/C: 71.4%
Second compound 0.01 µM, first compound 0.000949 µM
  viability, T/C: 88.8%
Second compound 0.01 µM, first compound 0.003 µM
  viability, T/C: 74%
Second compound 0.01 µM, first compound 0.00949 µM
  viability, T/C: 70.1%
Second compound 0.01 µM, first compound 0.03 µM
  viability, T/C: 60.9%
Second compound 0.01 µM, first compound 0.0949 µM
  viability, T/C: 68%
Second compound 0.01 µM, first compound 0.3 µM
  viability, T/C: 64.6%
Second compound 0.0316 µM, first compound 0.000949 µM
  viability, T/C: 89.8%
Second compound 0.0316 µM, first compound 0.003 µM
  viability, T/C: 66.1%
Second compound 0.0316 µM, first compound 0.00949 µM
  viability, T/C: 59.9%
Second compound 0.0316 µM, first compound 0.03 µM
  viability, T/C: 64.2%
Second compound 0.0316 µM, first compound 0.0949 µM
  viability, T/C: 65.2%
Second compound 0.0316 µM, first compound 0.3 µM
  viability, T/C: 64.5%
Second compound 0.1 µM, first compound 0.000949 µM
  viability, T/C: 77.5%
Second compound 0.1 µM, first compound 0.003 µM
  viability, T/C: 68.7%
Second compound 0.1 µM, first compound 0.00949 µM
  viability, T/C: 61%
Second compound 0.1 µM, first compound 0.03 µM
  viability, T/C: 58.5%
Second compound 0.1 µM, first compound 0.0949 µM
  viability, T/C: 60.1%
Second compound 0.1 µM, first compound 0.3 µM
  viability, T/C: 69.8%
Second compound 0.316 µM, first compound 0.000949 µM
  viability, T/C: 101%
Second compound 0.316 µM, first compound 0.003 µM
  viability, T/C: 72.3%
Second compound 0.316 µM, first compound 0.00949 µM
  viability, T/C: 69.8%
Second compound 0.316 µM, first compound 0.03 µM
  viability, T/C: 77.1%
Second compound 0.316 µM, first compound 0.0949 µM
  viability, T/C: 77.5%
Second compound 0.316 µM, first compound 0.3 µM
  viability, T/C: 69.5%
Second compound 1 µM, first compound 0.000949 µM
  viability, T/C: 78.9%
Second compound 1 µM, first compound 0.003 µM
  viability, T/C: 69.9%
Second compound 1 µM, first compound 0.00949 µM
  viability, T/C: 74%
Second compound 1 µM, first compound 0.03 µM
  viability, T/C: 64%
Second compound 1 µM, first compound 0.0949 µM
  viability, T/C: 65.9%
Second compound 1 µM, first compound 0.3 µM
  viability, T/C: 63.7%

## NC1c2ccccc2OC12CCN(c1cnc3c(N4CCCc5ncccc54)n[nH]c3n1)CC2 (stereo not given)
Compound 0.0316 µM
  viability, T/C: 73.8% [middle of 4 runs]
Compound 0.316 µM
  viability, T/C: 75.5% [middle of 4 runs]
Compound 1 µM
  viability, T/C: 77.6% [middle of 4 runs]
Compound 3.16 µM
  viability, T/C: 83.9% [middle of 4 runs]
Compound 10 µM
  viability, T/C: 78.4% [middle of 4 runs]
Curve of compound
  IC50: > 10000 nM
